The values below come from patent US20240327375A1, “SUBSTITUTED HETEROBICYCLIC DERIVATIVES AS NEGATIVE ALLOSTERIC MODULATORS OF MGLU7 RECEPTOR” (priority 2021, published 2024).

The target of the assay is T1, human mGlu7 (Homo sapiens, UniProt Q14831).
T1 construct: expressed in transfected cells
Kind of assay: mGlu7 assay on HEK-expressing human mGlu7: fluorescent cell-based Ca2+ mobilization (FLIPR384), inhibition of EC80 L-AP4 response. The conditions noted are these: HEK-293 cells expressing hmGlu7, EC80 L-AP4 stimulation; mean of at least three independent experiments in duplicate; read-out: Ca^2+ Flux (mean IC50). From the text: mGlu7 Assay on HEK-Expressing Human mGlu7
The cDNA encoding the human metabotropic glutamate 7 receptor (hmGlu7), (accession number NM_181874.2, NCBI Nucleotide database browser), was subcloned into an expression vector containing also the hygromycin resistance gene. In parallel, the cDNA encoding a G protein allowing redirection of the activation signal to intracellular calcium flux was subcloned into a different expression vector containing also the Puromycin resistance gene. Transfection of both these vectors into HEK293 cells with PolyFect reagent (Qiagen) according to supplier's protocol, and hygromycin and puromycin treatment allowed selection of antibiotic resistant cells which had integrated stably one or more copies of the plasmids. Positive cellular clones expressing hmGlu7 were identified in a functional assay measuring changes in calcium fluxes in response to glutamate and L-AP4 or known mGlu7 orthosteric antagonists.
HEK-293 cells expressing hmGlu7 were maintained in media containing DMEM, Fetal Bovine Serum (10%), Glutamax™ (2 mM), penicillin (100 units/mL), streptomycin (100 μg/mL), geneticin (100 μg/mL) and hygromycin-B (40 μg/mL) and puromycin (1 μg/mL) at 37° C. with 5% CO2 in a humidified atmosphere.
Fluorescent Cell Based- Ca^+ Mobilization Assay Human mGlu7 HEK-293 cells were plated out 24 hours prior to a fluorescent cell-based calcium mobilization assay using FLIPR^384 assay (Molecular Device, Sunnyvale, CA, USA) in black-walled, clear-bottomed, poly-L-ornithine-coated 384-well plates at a density of 25,000 cells/well in a glutamine/glutamate free DMEM medium containing fetal bovine serum (10%), penicillin (100 units/mL), streptomycin (100 μg/mL) and doxycyline (1 μg/ml) at 37° C. with 5% CO2 in a humidified atmosphere.
On the day of the assay, the medium was aspirated and the cells were loaded with a 3 μM solution of Fluo4-AM (LuBioScience, Lucerne, Switzerland) in 0.03% pluronic acid. After 1 hour at 37° C./5% CO2, the non incorporated dye was removed by washing cell plate with the assay buffer. All assays were performed in a pH 7.4 buffered-solution containing 20 mM HEPES, 143 mM NaCl, 6 mM KCl, 1 mM MgSO4, 1 mM CaCl2, 0.125 mM sulfinpyrazone and 0.1% glucose.
After 10 s of basal fluorescence recording, various concentrations of the compounds of the invention were added to the cells. Changes in fluorescence levels were first monitored for 180 s in order to detect any agonist activity of the compounds. Then the cells were stimulated by an EC80 L-AP4 concentration for an additional 110 s in order to measure inhibiting activities of the compounds of the invention. EC80 L-AP4 concentration is the concentration giving 80% of the maximal glutamate response.
The concentration-response curves of L-AP4 or representative compounds of the present invention were generated using the Prism GraphPad software (Graph Pad Inc, San Diego, USA). The curves were fitted to a four-parameter logistic equation: […]
allowing determination of IC50 values.
The Table 3 below represents the mean IC50 obtained from at least three independent experiments of selected molecules performed in duplicate.

T1 sequence (Q14831 35-922 isoform Q14831-2 limits assumed): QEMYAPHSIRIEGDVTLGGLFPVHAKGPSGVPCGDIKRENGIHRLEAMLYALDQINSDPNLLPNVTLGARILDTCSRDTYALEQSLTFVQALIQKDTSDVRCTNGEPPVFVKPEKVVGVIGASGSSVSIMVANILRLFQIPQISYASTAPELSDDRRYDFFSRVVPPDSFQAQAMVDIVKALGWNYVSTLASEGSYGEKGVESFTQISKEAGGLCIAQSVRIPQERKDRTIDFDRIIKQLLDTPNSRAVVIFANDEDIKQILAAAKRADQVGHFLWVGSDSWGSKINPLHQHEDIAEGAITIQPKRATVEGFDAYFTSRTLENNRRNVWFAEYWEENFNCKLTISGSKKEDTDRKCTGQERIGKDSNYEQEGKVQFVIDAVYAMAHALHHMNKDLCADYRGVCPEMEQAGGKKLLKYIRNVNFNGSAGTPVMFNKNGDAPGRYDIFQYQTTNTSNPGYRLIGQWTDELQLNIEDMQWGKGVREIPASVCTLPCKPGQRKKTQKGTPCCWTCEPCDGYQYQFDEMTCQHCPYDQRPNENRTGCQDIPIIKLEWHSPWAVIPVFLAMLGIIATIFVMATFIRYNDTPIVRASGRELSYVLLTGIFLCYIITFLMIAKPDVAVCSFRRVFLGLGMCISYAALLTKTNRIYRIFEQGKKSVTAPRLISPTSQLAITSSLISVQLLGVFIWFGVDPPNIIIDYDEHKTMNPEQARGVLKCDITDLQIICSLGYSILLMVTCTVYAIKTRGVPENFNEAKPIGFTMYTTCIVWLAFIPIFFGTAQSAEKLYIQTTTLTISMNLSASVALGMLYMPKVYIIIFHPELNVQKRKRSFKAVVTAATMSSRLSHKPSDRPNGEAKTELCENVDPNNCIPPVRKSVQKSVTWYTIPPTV

Take `COc1cccc(-c2ccc3c(=O)n(-c4ncc(NCCn5ccnc5)cn4)ncc3c2)c1C` [1-97]: the IC50 was less than 0.1 µM. `CN1CCc2c(-c3ccc4c(=O)n(-c5ccccn5)ncc4c3)cccc21` [1-37]: the IC50 was less than 0.1 µM. In the case of `O=c1c2ccc(-c3cc(N4CCC4)ccn3)cc2cnn1-c1ccccn1` [1-53, 6-(4-(Azetidin-1-yl)pyridin-2-yl)-2-(pyridin-2-yl)phthalazin-1(2H)-one], the IC50 is 1 to 10 µM. Turning to `Cc1ccc(-c2ccc3c(=O)n(-c4ncc(N5CCC(O)C5)cn4)ncc3c2)c(C)c1` (stereo not shown) [1-82], the IC50 was less than 0.1 µM. On to `COc1cccc(-c2ccc3c(=O)n(-c4ncc(NCCN(C)C)cn4)ncc3c2)c1C` [1-80], for which the IC50 was less than 0.1 µM. The value for `COc1cccc(-c2ccc3c(=O)n(-c4ncc(NCCn5cncn5)cn4)ncc3c2)c1C` [1-106] was less than 0.1 µM. For `COc1ccccc1-n1ncc2cc(-c3cccc(N4CCC4)c3)ccc2c1=O` [1-19] the value was 0.1 to 1 µM; for `Cc1ccc(-c2ccc3c(=O)n(-c4ccc(C(C)O)cc4)ncc3c2)c(C)c1` (stereo not shown) [1-14, 6-(2,4-Dimethylphenyl)-2-(4-(1-hydroxyethyl)phenyl)phthalazin-1(2H)-one], 0.1 to 1 µM. For `CCOc1cnc(-n2ncc3cc(-c4cccc(OC)c4C)ccc3c2=O)nc1` [1-85] the value was less than 0.1 µM; for `CN1CCCc2c(-c3ccc4c(=O)n(-c5ccccn5)ncc4c3)cccc21` [1-61], less than 0.1 µM. On to `O=c1c2ccc(-c3cccc(N4CCC4)c3)cc2cnn1-c1ncccn1` [1-46], for which the IC50 was less than 0.1 µM. The value for `COc1cccc(-c2ccc3c(=O)n(-c4ccccn4)ncc3c2)c1Cl` [1-33] was less than 0.1 µM; that for `Cc1c(OC2CC2)cccc1-c1ccc2c(=O)n(-c3ncccn3)ncc2c1` [1-43] was 0.1 to 1 µM. For the molecule `COc1cccc(-c2ccc3c(=O)n(-c4ccc(S(C)(=N)=O)cn4)ncc3c2)c1C` (stereo not shown) [1-91], the IC50 was less than 0.1 µM. For the molecule `CCn1ncc2cc(-c3cccc(N4CCC4)c3)ccc2c1=O` [1-11, 6-(3-(Azetidin-1-yl)phenyl)-2-ethylphthalazin-1(2H)-one], the IC50 is less than 0.1 µM. For the molecule `COc1cccc(-c2ccc3c(=O)n(-c4ncc(N5CCN(C)CC5)cn4)ncc3c2)c1C` [1-63], the IC50 was in the range of 0.1 to 1 µM. For the molecule `COc1cccc(-c2ccc3c(=O)n(-c4ncc(OC5CNC5)cn4)ncc3c2)c1C` [1-69], the IC50 lay in the range of 0.1 to 1 µM.

Consider `COc1cccc(-c2ccc3c(=O)n(-c4ncc(N5CCCC5)cn4)ncc3c2)c1C` [1-70], for which the half-maximal inhibitory concentration (IC50) is 0.1 to 1 µM. For `O=c1c2ccc(-c3cccc(N4CCC4)c3)cc2cnn1-c1ccc(F)cn1` [1-24, 6-(3-(Azetidin-1-yl)phenyl)-2-(5-fluoropyridin-2-yl)phthalazin-1(2H)-one] the value was 0.1 to 1 µM; for `COc1cccc(-c2ccc3c(=O)n(-c4ncccn4)ncc3c2)c1F` [1-111], less than 0.1 µM. As to `O=c1c2ccc(-c3cccc(N4CCC4)c3)cc2cnn1Cc1ccccc1` [1-20], the IC50 lay within 0.1 to 1 µM.

Take `COc1cccc(-c2ccc3c(=O)n(-c4ncccn4)ncc3c2)c1C` [1-42]: the 50% inhibitory concentration (IC50) was less than 0.1 µM. The value for `COc1cccc(-c2ccc3c(=O)n(-c4ncc(N5CCCC(O)C5)cn4)ncc3c2)c1C` (stereo not shown) [1-73] was less than 0.1 µM; that for `O=c1c2ccc(-c3cccc(N4CCC4)c3)cc2cnn1-c1ncc(N2CCC(O)C2)cn1` (stereo not shown) [1-83] was 0.1 to 1 µM.

As to `O=c1c2ccc(-c3cccc(N4CCC4)c3)cc2cnn1-c1ncc(F)cn1` [1-76], the IC50 is less than 0.1 µM. As to `CCn1ncc2cc(-c3cccc(OC)c3)ccc2c1=O` [1-3], the IC50 is 0.1 to 1 µM. As to `COc1cccc(-c2ccc3c(=O)n(-c4ncc(NCC(C)(C)N(C)C)cn4)ncc3c2)c1C` [1-96], the IC50 fell in the range of 0.1 to 1 µM.

`COc1cccc(-c2ccc3c(=O)n(-c4ncc(N5CCOCC5)cn4)ncc3c2)c1C` [1-64]: the IC50 was less than 0.1 µM.

As to `COc1cccc(-c2ccc3c(=O)n(-c4ncc(N5CCCCC5)cn4)ncc3c2)c1C` [1-71], the IC50 was 0.1 to 1 µM. `Cc1cnc(-n2ncc3cc(-c4cccc5c4CCN5C)ccc3c2=O)nc1` [1-56]: the IC50 was less than 0.1 µM. Regarding `COc1cccc(-c2ccc3c(=O)n(-c4ncccn4)ncc3c2)c1Cl` [1-40], the IC50 was less than 0.1 µM. For `COc1cccc(-c2ccc3c(=O)n(-c4cccc(C)n4)ncc3c2)c1` [1-32] the value was 0.1 to 1 µM; for `CCn1ncc2cc(-c3ccc(C)cc3C)ccc2c1=O` [1-1, 6-(2,4-Dimethylphenyl)-2-ethylphthalazin-1(2H)-one], 0.1 to 1 µM. Take `COc1cccc(-c2ccc3c(=O)n(-c4ncc(N5CCC(O)CC5)cn4)ncc3c2)c1C` [1-72]: the IC50 was less than 0.1 µM. As for `COc1cccc(-c2ccc3c(=O)n(-c4ncc(NC(C)(C)CN(C)C)cn4)ncc3c2)c1C` [1-104], the IC50 is 0.1 to 1 µM.

As for `CC(F)(F)c1cccc(-c2ccc3c(=O)n(-c4ccccn4)ncc3c2)c1` [1-39], the IC50 is 0.1 to 1 µM.

As to `COc1cccc(-c2ccc3c(=O)n(-c4ncc(NC5CCN(C)C5)cn4)ncc3c2)c1C` (stereo not shown) [1-107], the IC50 is less than 0.1 µM. Consider `O=c1c2ccc(-c3cc(F)cc(N4CCC4)c3)cc2cnn1-c1ccccn1` [1-49], for which the IC50 fell in the range of 0.1 to 1 µM. `O=c1c2ccc(-c3cccc4c3ccn4C3CC3)cc2cnn1-c1ncccn1` [1-48]: the IC50 was in the range of 0.1 to 1 µM. Turning to `COc1cccc(-c2ccc3c(=O)n(-c4ncc(NC5CCCC(O)C5)cn4)ncc3c2)c1C` (stereo not shown) [1-75], the IC50 is less than 0.1 µM. As for `O=c1c2ccc(-c3cccc4c3ccn4C3CC3)cc2cnn1-c1ccccn1` [1-47], the IC50 was 1 to 10 µM. As to `COc1cccc(-c2ccc3c(=O)n(-c4ncccc4F)ncc3c2)c1C` [1-58], the IC50 is less than 0.1 µM. Take `CCn1ncc2cc(-c3c(C)cc(C)cc3C)ccc2c1=O` [1-2]: the half-inhibitory concentration (IC50) lay within 0.1 to 1 µM. As for `Cc1c(OC2CC2)cccc1-c1ccc2c(=O)n(-c3ccccn3)ncc2c1` [1-36], the IC50 is less than 0.1 µM.

Turning to `O=c1c2ccc(-c3cccc(OC4CC4)c3Cl)cc2cnn1-c1ccccn1` [1-34], the IC50 is less than 0.1 µM. On to `Cc1ccc(-c2ccc3c(=O)n(-c4ccc(S(C)(=O)=O)cc4)ncc3c2)c(C)c1` [1-8, 6-(2,4-Dimethylphenyl)-2-(4-(methylsulfonyl)phenyl)phthalazin-1(2H)-one], for which the half-maximal inhibitory concentration (IC50) was in the range of 0.1 to 1 µM. Consider `Cc1ccc(-c2ccc3c(=O)n(-c4ccccn4)ncc3c2)c(C)c1` [1-10], for which the IC50 is less than 0.1 µM. In the case of `COc1cccc(-c2ccc3c(=O)n(C4CCOCC4)ncc3c2)c1C` [1-60], the IC50 lay in the range of 0.1 to 1 µM.

`COCC(C)(C)Nc1cnc(-n2ncc3cc(-c4cccc(OC)c4C)ccc3c2=O)nc1` [1-109]: the IC50 was less than 0.1 µM. Take `COc1cccc(-c2ccc3c(=O)n(-c4ncc(NC(C)(C)CO)cn4)ncc3c2)c1C` [1-100]: the IC50 is less than 0.1 µM. Consider `COc1cccc(-c2ccc3c(=O)n(CCN4CCOCC4)ncc3c2)c1C` [1-66], for which the IC50 was in the range of 0.1 to 1 µM.

In the case of `COc1cccc(-c2ccc3c(=O)n(-c4ccc(C(=O)NC5CCC(O)C5)cn4)ncc3c2)c1C` (stereo not shown) [1-94], the IC50 is less than 0.1 µM. `COc1cccc(-c2ccc3c(=O)n(-c4ccc(S(C)(=O)=O)cn4)ncc3c2)c1C` [1-68]: the IC50 was 0.1 to 1 µM. For the molecule `COc1cccc(-c2ccc3c(=O)n(-c4ncccc4F)ncc3c2)c1` [1-29], the IC50 lay within 0.1 to 1 µM. The value for `COc1cccc(-c2ccc3c(=O)n(-c4ncc(NCC(C)(C)O)cn4)ncc3c2)c1C` [1-88] was less than 0.1 µM.
